Results as given in patent publication US5369112A, “Method of treating cataracts caused by active oxygen” (Mitsubishi Gas Chemical Company, Inc., priority 1991, dated 1994).
Read-outs that look alike come from different tables or passages of the source. Blank lines part the entries; values can stand above or below the compound they belong to.

Tests used:
[1] = Superoxide scavenging activity (hypoxanthine-xanthine oxidase, DMPO spin trapping, ESR); assay type: biochemical; settings: pH 7.3, read-out: O2^- scavenging activity IC50
Text: Activity of PQQ esters to scavenge superoxide (O2^-) produced in the system of hypoxanthinexanthine oxidase was examined by spin trapping method [using 5,5-dimethyl-l-pyrroline-N-oxide (hereinafter referred to as "DMPO") as a spin trapping agent] where electron spin resonance (hereinafter referred to as "ESR") was used.
Hypoxanthine+2O2 →2O2^- +uric acid (xanthine oxidase)
The following reagents were successively put in a test tube and stirred after addition of the hypoxanthine 7 to initiate the reaction and the reaction mixture was transferred to a quartz cell used for measurement of ESR.
Superoxide scavenging activity of OPQ and esters thereof was examined in the same manner as in Example 1.

[2] = Hydroxy radical scavenging activity (H2O2-(Fe^2+-DTPA), DMPO spin trapping, ESR); assay type: biochemical; settings: pH 7.3, read-out: .OH scavenging activity IC50
Text: Activity of PQQ esters to scavenge hydroxy radical (·OH) produced in the system of H2 O2 --(Fe^2+ -DTPA) was examined by spin trapping method [using 5,5-dimethyl-1-pyrroline-N-oxide (hereinafter referred to as "DMPO") as a spin trapping agent] where electron spin resonance (hereinafter referred to as "ESR") was used. DTPA means diethylenetriamine-pentaacetic acid.
H2 O2 +Fe^2 -DTPA complex→·OH+OH^-
The following reagents were successively put in a test tube and stirred after addition of H2 O2 6 to initiate the reaction and the reaction mixture was transferred to a quartz cell used for measurement of ESR.
Hydroxy radical scavenging activity of OPQ and esters thereof was examined in the same manner as in Example 3.

[3] = tested on: Hydrocortisone-Induced Cataract of Hen's Eggs; test: Effect on hydrocortisone-induced cataract of hen's eggs; assay type: in vivo, white leghorn (hen's eggs); settings: 1 μmole at 3, 10 and 20 h after hydrocortisone; lens at 48 h
Method: Fertilized eggs of white leghorn were incubated in an incubator at a temperature of 37° C. and 70% in humidity. The day on which the incubation was started was taken to be one day old. […] eggs of 15 day old were prepared and divided into 7 groups, each of which included 5 eggs (A-G). A small hole was bored through the eggshell above air chamber of the eggs of groups B-G and 0.25 μmole (as 0.2 ml solution) of hydrocortisone sodium succinate was administered into the air chamber through the hole and then, the hole was sealed with a cellophane tape. To The eggs of groups C-G was administered 1 μmole of following compounds after 3, 10 and 20 hours from administration of hydrocortisone sodium succinate. That is, 0.2 ml of a solution of PQQ·2Na in distilled water was administered to the eggs of group C, 0.2 ml of a suspension of PQQ trimethyl ester in 1% Tween 80 solution was administered to the eggs of group D, 0.2 ml of a suspension of triallyl ester in 1% Tween 80 solution was administered to the eggs of group E, 0.2 ml of a solution of OPQ in 10 mM NaCO3 solution was administered to the eggs of group F, and 0.2 ml of a solution of methyl OPQ in 10 mM NaCO3 solution was administered to the eggs of group G.
Crystal lens was taken out after 48 hours from administration of hydrocortisone sodium succinate and degree of cataract was judged by the criteria according to the Nishigori et al method (Nishigori et al, "Investigative Ophthalmology & Visual Science", Vol. 25, page 1051, 1984).
5 The whole nucleus was hazed in white.

male mice SPF-ICR = test: Acute toxicity test (1), intraperitoneal; settings: mouse, in vivo, ip
Method: To male mice SPF-ICR five weeks old (supplied by Japan Charles River Co.) were intraperitoneally administered PQQ·2Na, PQQ trimethyl ester, PQQ triallyl ester, OPQ, 1-methylpropyl OPQ, 2-methylthioethyl OPQ and benzyl OPQ at dosages of 40, 80, 160 and 200 mg per kg of body weight of mouce, respectively and they were bred for 14 days at 25° C. One group consisted of 8 mice. For administration, PQQ·2Na and OPQ and esters thereof were dissolved in physiological saline and PQQ trimethyl ester and PQQ triallyl ester were suspended in 1% Tween 80-containing physiological saline, respectively.

mice [4] = settings: mouse, in vivo, ip
Method: One group consisted of 8 mice. For administration, PQQ·2Na and OPQ and esters thereof were dissolved in physiological saline and PQQ trimethyl ester and PQQ triallyl ester were suspended in 1% Tween 80-containing physiological saline, respectively.
PQQ·2Na, PQQ trimethyl ester, PQQ triallyl ester and OPQ and esters thereof were intraperitoneally administered to mice and they were bred in the same manner as in the above acute toxicity test. Urine of the mice was taken every day and glucose concentration was measured using clinical examination reagent (trademark: […] 2 manufactured by Miles.Sankyo Co.).

mice [5] = test: Kidney Toxicity Determined by Blood Examination (1); assay type: in vivo
Method: After lapse of one day from the administration, the mice were fasted (with feeding only water) and then after 18 hours, blood was collected and serum was obtained therefrom. Glucose, urea nitrogen and creatinine in the serum were examined by clinical examination reagent (trademark: FUJI DRYCHEMSLIDE manufactured by Fuji Photo Film Co., Ltd.).

[6] = not told; for Membrane permeation constant: bovine, 960 min
Method: Permeability of various compounds through capsule of crystal bovine lens was examined in accordance with the method mentioned in "Crystal Lens and Biochemical Mechanism thereof" (pages 436-440) edited by Shuzo Iwata (Medical Aoi Publisher). Each compound dissolved in 10 mM HEPES buffer (containing 1% DMSO in the case of PQQ triesters) was put in an apparatus for measurement of membrane permeation constant and left to stand for 16 hours at 35° C. and then amount of the compound which migrated was measured by ultraviolet absorption (243 nm for PQQ·2Na and 255 nm for PQQ esters) to obtain membrane permeation constant.

Compound: O=C(O)CCc1nc2c3nc(C(=O)O)cc(C(=O)O)c3c3[nH]c(C(=O)O)cc3c2o1 [2-Carboxyethyl OPQ, 2-carboxyethyl OPQ (R=CH2 CH2 CO2 H)]
- IC50 ([1]; Example 2, Table 7): 2.96 µM
- IC50 ([2]; Example 4, Table 9): 110 µM

Compound: O=C(O)c1cc(C(=O)O)c2c(n1)C(=O)C(=O)c1cc(C(=O)O)[nH]c1-2 [PQQ.2Na, reference compound]
- mice died (male mice SPF-ICR; 40 mg/kg): No mice died
- mice died (male mice SPF-ICR; 80 mg/kg): five mice died
- mice died (male mice SPF-ICR; 160 mg/kg): eight mice all died
- mice died (male mice SPF-ICR; 200 mg/kg): eight mice all died
- glucose detected in urine (mice [4]): glucose was detected in urine
- glucose in urine (mice [4]; 20 mg/kg): -
- glucose in urine (mice [4]; 40 mg/kg): -
- glucose in urine (mice [4]; 80 mg/kg): -
- contents of glucose, urea nitrogen and creatinine in serum (mice [5]; mouse, in vivo): Sharp reduction of glucose and much increase of urea nitrogen and creatinine
- kidney toxicity (mice [5]; mouse, in vivo): kidney toxicity was recognized
- Creatinine (mice [5]; mouse, in vivo, 20 mg/kg): 0.8 ± 0.1 mg/dL
- Glucose (mice [5]; mouse, in vivo, 20 mg/kg): 70 ± 13 mg/dL
- Urea nitrogen (mice [5]; mouse, in vivo, 20 mg/kg): 25 ± 3 mg/dL
- Creatinine (mice [5]; mouse, in vivo, 40 mg/kg): 2.3 ± 1.0 mg/dL
- Glucose (mice [5]; mouse, in vivo, 40 mg/kg): 60 ± 12 mg/dL
- Urea nitrogen (mice [5]; mouse, in vivo, 40 mg/kg): 110 ± 38 mg/dL
- Creatinine (mice [5]; mouse, in vivo, 80 mg/kg): 3.4 ± 0.4 mg/dL
- Glucose (mice [5]; mouse, in vivo, 80 mg/kg): 57 ± 15 mg/dL
- Urea nitrogen (mice [5]; mouse, in vivo, 80 mg/kg): 130 ± 18 mg/dL
- Creatinine (mice [5]; mouse, in vivo, 160 mg/kg): 4.1 ± 0.2 mg/dL
- Glucose (mice [5]; mouse, in vivo, 160 mg/kg): 35 ± 7 mg/dL
- Urea nitrogen (mice [5]; mouse, in vivo, 160 mg/kg): 139 ± 3 mg/dL
- IC50 ([1]; Example 1, Table 6): 0.0383 µM
- IC50 ([2]; Example 3, Table 8): 64 µM
- Judgement 1 (No haze was seen in crystal lens), eggs [3]: 1/5
- Judgement 2 (Slight opaque ring was seen in crystal lens), eggs [3]: 2/5
- Judgement 4 ~ 5 (white haze of pinhole size in nucleus ~ whole nucleus hazed in white), eggs [3]: 2/5
- Membrane permeation constant [6]: 0.68 ± 0.36 10 ^-7 cm^2 · sec^-1

Compound: CCC(C)c1nc2c3nc(C(=O)O)cc(C(=O)O)c3c3[nH]c(C(=O)O)cc3c2o1 (stereo not drawn) [1-Methylpropyl OPQ, 1-methylpropyl OPQ (R=CH(CH3)CH2 CH3)]
- glucose in urine (mice [4]; 20 mg/kg): -
- glucose in urine (mice [4]; 40 mg/kg): -
- glucose in urine (mice [4]; 80 mg/kg): -
- glucose in urine (mice [4]; 160 mg/kg): -
- glucose in urine (mice [4]; 200 mg/kg): -
- Creatinine (mice [5]; mouse serum, 40 mg/kg): 0.80 ± 0.08 mg/dL
- Glucose (mice [5]; mouse serum, 40 mg/kg): 87 ± 20 mg/dL
- Urea nitrogen (mice [5]; mouse serum, 40 mg/kg): 26 ± 1 mg/dL
- Creatinine (mice [5]; mouse serum, 80 mg/kg): 0.78 ± 0.04 mg/dL
- Glucose (mice [5]; mouse serum, 80 mg/kg): 104 ± 19 mg/dL
- Urea nitrogen (mice [5]; mouse serum, 80 mg/kg): 22 ± 3 mg/dL
- Creatinine (mice [5]; mouse serum, 160 mg/kg): 0.78 ± 0.04 mg/dL
- Glucose (mice [5]; mouse serum, 160 mg/kg): 87 ± 22 mg/dL
- Urea nitrogen (mice [5]; mouse serum, 160 mg/kg): 27 ± 4 mg/dL
- Creatinine (mice [5]; mouse serum, 200 mg/kg): 0.83 ± 0.17 mg/dL
- Glucose (mice [5]; mouse serum, 200 mg/kg): 66 ± 11 mg/dL
- Urea nitrogen (mice [5]; mouse serum, 200 mg/kg): 27 ± 6 mg/dL
- IC50 ([1]; Example 2, Table 7): 3.53 µM
- IC50 ([2]; Example 4, Table 9): 252 µM

Compound: O=C(O)c1cc(C(=O)O)c2c(n1)c1nc(Cc3ccccc3)oc1c1cc(C(=O)O)[nH]c12 [Benzyl OPQ, benzyl OPQ]
- glucose in urine (mice [4]; 20 mg/kg): -
- glucose in urine (mice [4]; 40 mg/kg): -
- glucose in urine (mice [4]; 80 mg/kg): -
- glucose in urine (mice [4]; 160 mg/kg): -
- glucose in urine (mice [4]; 200 mg/kg): -
- Creatinine (mice [5]; mouse serum, 40 mg/kg): 0.68 ± 0.05 mg/dL
- Glucose (mice [5]; mouse serum, 40 mg/kg): 90 ± 24 mg/dL
- Urea nitrogen (mice [5]; mouse serum, 40 mg/kg): 23 ± 3 mg/dL
- Creatinine (mice [5]; mouse serum, 80 mg/kg): 0.68 ± 0.04 mg/dL
- Glucose (mice [5]; mouse serum, 80 mg/kg): 87 ± 17 mg/dL
- Urea nitrogen (mice [5]; mouse serum, 80 mg/kg): 23 ± 2 mg/dL
- Creatinine (mice [5]; mouse serum, 160 mg/kg): 0.68 ± 0.08 mg/dL
- Glucose (mice [5]; mouse serum, 160 mg/kg): 87 ± 21 mg/dL
- Urea nitrogen (mice [5]; mouse serum, 160 mg/kg): 26 ± 3 mg/dL
- Creatinine (mice [5]; mouse serum, 200 mg/kg): 0.73 ± 0.05 mg/dL
- Glucose (mice [5]; mouse serum, 200 mg/kg): 84 ± 18 mg/dL
- Urea nitrogen (mice [5]; mouse serum, 200 mg/kg): 25 ± 3 mg/dL
- IC50 ([1]; Example 2, Table 7): 3.01 µM
- IC50 ([2]; Example 4, Table 9): 211 µM

Second part, led by results:

- IC50 ([1]; Example 2, Table 7): 3.52 µM
- IC50 ([2]; Example 4, Table 9): 305 µM
Compound: O=C(O)c1cc(C(=O)O)c2c(n1)c1nc(CO)oc1c1cc(C(=O)O)[nH]c12 [Hydroxymethyl OPQ, hydroxymethyl OPQ (R=CH2 OH)]

- IC50 ([1]; Example 2, Table 7): 1.64 µM
- IC50 ([2]; Example 4, Table 9): 153 µM
Compound: Cc1nc2c3nc(C(=O)O)cc(C(=O)O)c3c3[nH]c(C(=O)O)cc3c2o1 [Methyl OPQ, methyl OPQ (R=CH3)]
- Judgement 1 (No haze was seen in crystal lens), eggs [3]: 1/5
- Judgement 3 (Clear ring of white haze was seen in crystal lens), eggs [3]: 2/5
- Judgement 4 ~ 5 (white haze of pinhole size in nucleus ~ whole nucleus hazed in white), eggs [3]: 2/5

- IC50 ([1]; Example 1, Table 6): 0.0106 µM
Compound: PQQ dimethyl ester

- Membrane permeation constant [6]: 1.22 ± 0.37 10 ^-7 cm^2 · sec^-1
- membrane permeation constant relative to that of PQQ.2Na [6]: about twice
Compound: CCOC(=O)c1cc(C(=O)OCC)c2c(n1)C(=O)C(=O)c1cc(C(=O)OCC)[nH]c1-2 [PQQ triethyl ester]
